Where two headings read alike, the source gives them in different places. Marks after values point to notes of the source that are not given here.
What was measured:
MA16/C, sc [1] = conditions: mouse, in vivo
Experimental: (§6) The effectiveness of irinotecan combination chemotherapy methods was tested in a dose response study in a murine tumor model. Three arms were evaluated for tolerance and efficacy. Tolerance was measured by mortality, body weight loss at nadir, host recovery time, and combination toxicity index. Efficacy end points for solid tumor models were tumor growth delay (T/C), log10 cell kill (LCK, defined above), tumor regressions (i.e., complete remission (CR),or partial remission (PR)).
(§7) The LD10 for the single agent was obtained by plotting the toxicity of that agent and the dosage in mg/kg as a log probit graph. Subsequently, the CTI LD10 was obtained by plotting as a log probit graph the observed lethality and the corresponding CTI calculated as the sum of the fraction of the LD10 of each single agent.

P388/CPT = test: Percent increase in life span, camptothecin-resistant i.p. P388/CPT leukemia (Example 2); assay type: in vivo, mice; conditions: for Comment (chemosensitivity of P388/CPT): minimal activity = ILS greater than 26%; for % ILS: i.p. P388/CPT, highest non-toxic dose
Experimental: (§1) Cross-resistance between various agents was measured in murine leukemia cell lines. P388/CPT is a camptothecin-resistant leukemia that was established in vitro (Biochem. Pharmacol., 45: 339 (1993)) and maintained in vivo by i.p. passages in DBA2 female mice. The chemosensitivity of i.p. P388/CPT was evaluated with i.v. P388 sensitive reference drugs with different mechanisms of action. Antitumor efficacy was determined at the highest non-toxic dose as percent increase in life span (ILS), where:
(§2) ILS=100×[(median day of death (MDD) of treated mice)−(MDD control mice)][…]
(§3) A minimal level of activity equals an ILS of greater than 26%. P388/CPT was found resistant to camptothecin s.c. and CPT-11, but sensitive to both doxorubicin and etoposide. […] Table II tabulates the results from this study.

MA16/C, sc [2] = test: Dose response combination study, MA16/C sc (Example 5)
Experimental: as §6, §7

P388 = assay type: in vivo, mice; conditions: highest non-toxic dose
Experimental: as §1, §2, §3

P03, sc = test: Dose response combination study, P03 sc (Example 5); assay type: in vivo, murine
Experimental: Three arms were evaluated for tolerance and efficacy.

[3] = test system: Pancreatic Ductal Adenocarcinoma P03
Experimental: In the first arm, three doses of CPT were given orally on days six through nine, twice a day. In the second arm, three doses of doxorubicin were given intravenously on days six and nine. In the combination third arm, five dosage levels of CPT-11 were administered orally on days six through nine, twice a day, with administration of five dosage levels of doxorubicin intravenously on days six and nine. This third arm illustrated an example of semi-simultaneous administration. In all three arms, the two daily administrations of CPT-11 were given four hours apart.

[4] = Tolerance of oral and i.v. irinotecan in tumor bearing mice (Example 1); assay type: in vivo; conditions: oral and intravenous
C26 = C26 (BALB/c); for LCK: at optimal total dose
Experimental: (§4) This efficacy may be quantified, for example by the log10 cell kill, which is determined by the following formula: […]
(§5) in which T−C represents the time taken for the cells to grow, which is the mean time in days for the tumors of the treated group (T) to reach a predetermined value (1 g for example) and the tumors of the control group (C) to reach the same value, and Td represents the time in days needed for the volume of the tumors in the control group to double. […] A product is considered to be active if the log10 cell kill is greater than or equal to 0.7. A product is considered to be very active if the log10 cell kill is greater than 2.8.

MA16/C = MA16/C (C3H/HeN); for Optimal Total Dose: days 5-9; for LCK: days 5-9, at optimal total dose
Experimental: as §4, §5

P03 = P03 (B6D2F1), twice daily; for LCK: at optimal total dose
Experimental: as §4, §5

C51 = C51 (BALB/c), days 5, 7, 9, 13, 15, twice daily; for LCK: at optimal total dose
Experimental: as §4, §5

GOS = GOS (B6D2F1); for LCK: at optimal total dose
Experimental: as §4, §5

[5] = Doxorubicin i.v. 3.8 mg/kg/adm, days 6, 9
[6] = Doxorubicin i.v. 6.2 mg/kg/adm, days 6, 9
[7] = Doxorubicin i.v. 10.0 mg/kg/adm, days 6, 9
[8] = CPT-11 p.o. 38.8 mg/kg/adm, days 6-9 (twice/day)
[9] = CPT-11 p.o. 62.5 mg/kg/adm, days 6-9 (twice/day)
[10] = CPT-11 p.o. 100.8 mg/kg/adm, days 6-9 (twice/day)

SMILES: COc1cc([C@@H]2c3cc4c(cc3[C@@H](O[C@@H]3O[C@@H]5CO[C@@H](C)O[C@H]5[C@H](O)[C@H]3O)[C@H]3COC(=O)[C@H]23)OCO4)cc(OC)c1O [etoposide]
- HNTD Dose (MA16/C, sc [1]): 90.0 mg/kg
- Comment (chemosensitivity of P388/CPT) (P388/CPT; agent i.v.): sensitive
- % ILS (P388/CPT; agent i.v.): 121%
- LCK (MA16/C, sc [2]; mouse, in vivo): 2.2
- % ILS (P388; P388, agent i.v.): 127%

SMILES: COc1cccc2c1C(=O)c1c(O)c3c(c(O)c1C2=O)C[C@@](O)(C(=O)CO)C[C@@H]3O[C@H]1C[C@H](N)[C@H](O)[C@H](C)O1 [doxorubicin]
- tumor free survivors (P03, sc; doxorubicin i.v. single agent at HNTD 20.0 mg/kg, days 6, 9): 4/5
- HNTD Dose (P03, sc; doxorubicin i.v. single agent, days 6, 9): 20.0 mg/kg
- Comments [3, 5]: Active
- Log10 cell kill [3, 5]: 1.0
- T-C [3, 5]: 7.5 days
- Time for median tumor to reach 1000 mg [3, 5]: 23.9 days
- Comments [3, 6]: Active
- Log10 cell kill [3, 6]: 1.2
- T-C [3, 6]: 9.5 days
- Time for median tumor to reach 1000 mg [3, 6]: 25.9 days
- Comments [3, 7]: HDT highly active
- tumor free survivors [3, 7]: *There are no values presented because 4 out of 5 animals tested were tumor free survivors.
- Comment (chemosensitivity of P388/CPT) (P388/CPT; agent i.v.): sensitive
- % ILS (P388/CPT; agent i.v.): 180%
- % ILS (P388; P388, agent i.v.): 122%

SMILES: CC[C@@]1(O)C(=O)OCc2c1cc1n(c2=O)Cc2cc3ccccc3nc2-1 [CPT, camptothecin]
- Comment (chemosensitivity of P388/CPT) (P388/CPT; agent s.c.): resistant
- % ILS (P388/CPT; agent s.c.): 0%
- % ILS (P388; P388, agent s.c.): 82%

SMILES: CCc1c2c(nc3ccc(OC(=O)N4CCC(N5CCCCC5)CC4)cc13)-c1cc3c(c(=O)n1C2)COC(=O)[C@]3(O)CC [CPT-11, irinotecan]
- LCK (P03, sc; CPT-11 p.o. single agent at HNTD 806 mg/kg, days 6-9 twice daily): 1.3
- HNTD Dose (P03, sc; CPT-11 p.o. single agent, days 6-9 twice daily): 806 mg/kg
- Comments [3, 8]: Inactive
- Log10 cell kill [3, 8]: 0.5
- T-C [3, 8]: 4.0 days
- Time for median tumor to reach 1000 mg [3, 8]: 20.4 days
- Comments [3, 9]: Active
- Log10 cell kill [3, 9]: 1.2
- T-C [3, 9]: 9.3 days
- Time for median tumor to reach 1000 mg [3, 9]: 25.7 days
- Comments [3, 10]: HDT active
- Log10 cell kill [3, 10]: 1.3
- T-C [3, 10]: 9.8 days
- Time for median tumor to reach 1000 mg [3, 10]: 26.2 days
- Comment (chemosensitivity of P388/CPT) (P388/CPT; agent i.v.): resistant
- % ILS (P388/CPT; agent i.v.): 0%
- LCK (MA16/C, sc [2]; CPT-11 p.o. single agent at HNTD 198.5 mg/kg, MA16/C sc, days 3-7): 2.0
- HNTD Dose (MA16/C, sc [2]; CPT-11 p.o. single agent, MA16/C sc, days 3-7): 198.5 mg/kg
- nadir ([4]; days post last administration): 7 days
- recovery ([4]; days post nadir (i.e., 12 days post first administration)): 5 days
- body weight loss ([4]; similar tolerance): 8.5%
- Optimal Total Dose (C26; i.v., twice daily): 228 mg/kg
- LCK (C26; i.v., twice daily): 0.7
- Optimal Total Dose (C26; oral, days 3-7 twice daily): 558 mg/kg
- LCK (C26; oral, days 3-7 twice daily): 0.9
- Optimal Total Dose (MA16/C; i.v.): 130.5 mg/kg
- LCK (MA16/C; i.v.): 2.6
- Optimal Total Dose (MA16/C; oral): 230.5 mg/kg
- LCK (MA16/C; oral): 2.7
- Optimal Total Dose (P03; i.v.): 346.2 mg/kg
- tumor free survivor on day 120 (P03; i.v., 346.2 mg/kg total): †1/5 tumor free survivor on day 120.
- LCK (P03; i.v.): 3.2†
- Optimal Total Dose (P03; oral): 900 mg/kg
- tumor free survivor on day 120 (P03; oral, 900 mg/kg total): †1/5 tumor free survivor on day 120.
- LCK (P03; oral): 3.4†
- Optimal Total Dose (C51; i.v.): 615 mg/kg
- LCK (C51; i.v.): 3.0
- Optimal Total Dose (C51; oral): 845 mg/kg
- LCK (C51; oral): 2.5
- Optimal Total Dose (GOS; i.v., days 3, 5, 7 twice daily): 346.2 mg/kg
- LCK (GOS; i.v., days 3, 5, 7 twice daily): 2.2
- Optimal Total Dose (GOS; oral, days 3-7, twice daily): 900 mg/kg
- LCK (GOS; oral, days 3-7, twice daily): 2.1
- % ILS (P388; P388, agent i.v.): 91%

Source: patent publication US20030195161A1, “Composition comprising camptothecin or a camptothecin derivative and a topoisomerase II inhibitor for the treatment of cancer” (priority 2000, published 2003)
